Experimental data: PubChem BioAssay AID330 (DTP/NCI, 2004)
Toxic doses and inconclusive results are not listed. How the source made its calls: active means survival T/C of 150% or more; inactive means T/C below 125% in these data.

Test system: P388 leukemia ip, CD2F1 mice, survival T/C
Assay: NCI In Vivo Anticancer Drug Screen. Data for tumor model P388 Leukemia (intraperitoneal) in CD2F1 (CDF1) mice
Settings: endpoint: median survival time, higher = longer survival
How it was run: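 Mice carrying the transplanted tumor received test compound or vehicle. Survival was recorded in each group, and the value is the treated-group measurement divided by that of the vehicle-treated control group.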

[1] = dose: 60.0 mg/kg/injection, schedule: Q01DX005 (ip), vehicle: saline with Tween-80
[2] = dose: 120.0 mg/kg/injection, schedule: Q01DX005 (ip), vehicle: saline with Tween-80
[3] = dose: 240.0 mg/kg/injection, schedule: Q01DX005 (ip), vehicle: saline with Tween-80
[4] = dose: 50.0 mg/kg/injection, schedule: Q01DX005 (ip), vehicle: saline with Tween-80
[5] = dose: 100.0 mg/kg/injection, schedule: Q01DX005 (ip), vehicle: saline with Tween-80
[6] = dose: 200.0 mg/kg/injection, schedule: Q01DX005 (ip), vehicle: saline with Tween-80
[7] = dose: 25.0 mg/kg/injection, schedule: Q01DX009 (ip), vehicle: saline with Tween-80
[8] = dose: 50.0 mg/kg/injection, schedule: Q01DX009 (ip), vehicle: saline with Tween-80

Measured: T/C

O=C(Nc1ccc(Cl)cc1)Nc1nnc2nc(CC(=O)c3cccc([N+](=O)[O-])c3Cl)c(=O)[nH]n12
inactive: [1] 99 % of control | [2] 101 % of control | [3] 100 % of control

O=CNc1c2ccccc2c(NC=O)c2ccccc12
inactive: [4] 92 % of control | [5] 88 % of control | [6] 101 % of control

O=c1[nH]nc(SCc2ccc(Cl)cc2Cl)c(=O)[nH]1
inactive: dose: 6.25 mg/kg/injection, schedule: Q01DX005 (ip), vehicle: Klucel (hydroxypropylcellulose) (HPC) 100 % of control | dose: 12.5 mg/kg/injection, schedule: Q01DX005 (ip), vehicle: Klucel (hydroxypropylcellulose) (HPC) 94 % of control | dose: 25.0 mg/kg/injection, schedule: Q01DX005 (ip), vehicle: Klucel (hydroxypropylcellulose) (HPC) 86 % of control

Cc1cc(N(c2ccc([N+](=O)[O-])cc2)S(C)(=O)=O)c(C)cc1C=O
inactive: [7] 101 % of control | [8] 99 % of control | dose: 100.0 mg/kg/injection, schedule: Q01DX009 (ip), vehicle: saline with Tween-80 98 % of control

CC(C)[CH2][Sn](=[O])[c]1ccccc1
inactive: dose: 0.39 mg/kg/injection, schedule: Q01DX009 (ip), vehicle: saline 88 % of control | dose: 0.79 mg/kg/injection, schedule: Q01DX009 (ip), vehicle: saline 87 % of control | dose: 1.56 mg/kg/injection, schedule: Q01DX009 (ip), vehicle: saline 95 % of control

CC(C)(C)OC(=O)NC(CCC(=O)O)C(=O)O (stereo not given)
inactive: [4] 100 % of control | [5] 97 % of control | [6] 103 % of control

NC(=O)N/N=C1\CCn2cccc21
inactive: [1] 92 % of control | [2] 95 % of control

CCCCC[P+](c1ccccc1)(c1ccccc1)c1ccccc1
inactive: dose: 1.56 mg/kg/injection, schedule: Q01DX009 (ip), vehicle: Klucel (hydroxypropylcellulose) (HPC) 105 % of control | dose: 3.12 mg/kg/injection, schedule: Q01DX009 (ip), vehicle: Klucel (hydroxypropylcellulose) (HPC) 111 % of control | dose: 3.13 mg/kg/injection, schedule: Q01DX009 (ip), vehicle: Klucel (hydroxypropylcellulose) (HPC) 121 % of control | dose: 6.25 mg/kg/injection, schedule: Q01DX009 (ip), vehicle: Klucel (hydroxypropylcellulose) (HPC) 121 % of control | dose: 12.5 mg/kg/injection, schedule: Q01DX009 (ip), vehicle: Klucel (hydroxypropylcellulose) (HPC) 93 % of control | dose: 25.0 mg/kg/injection, schedule: Q01DX009 (ip), vehicle: Klucel (hydroxypropylcellulose) (HPC) 100 % of control

CN=C(N)NN=C(c1cccc(F)c1)c1cccc(F)c1
inactive: dose: 25.0 mg/kg/injection, schedule: Q04DX002 (ip), vehicle: saline with Tween-80 100 % of control | dose: 50.0 mg/kg/injection, schedule: Q04DX002 (ip), vehicle: saline with Tween-80 102 % of control | dose: 100.0 mg/kg/injection, schedule: Q04DX002 (ip), vehicle: saline with Tween-80 100 % of control

CCOC(=O)C1C2CCCCC21OC (stereo not given)
inactive: [1] 106 % of control | [2] 107 % of control | [3] 110 % of control

Nc1nc2c(c(=O)[nH]1)NC(CN(C=O)c1ccc(C(=O)NC(CCC(=O)O)C(=O)O)cc1)CC2 (stereo not given)
inactive: dose: 50.0 mg/kg/injection, schedule: Q01DX001 (ip), vehicle: saline 99 % of control | dose: 100.0 mg/kg/injection, schedule: Q01DX001 (ip), vehicle: saline 100 % of control | dose: 200.0 mg/kg/injection, schedule: Q01DX001 (ip), vehicle: saline 91 % of control

Cc1sc(C)c(CCl)c1CCl
inactive: dose: 12.5 mg/kg/injection, schedule: Q01DX009 (ip), vehicle: saline with Tween-80 113 % of control | [7] 118 % of control | dose: 37.5 mg/kg/injection, schedule: Q01DX009 (ip), vehicle: saline with Tween-80 122 % of control | [8] 118 % of control

CCC(C)(F)C(N)C(=O)O (stereo not given)
inactive: dose: 50.0 mg/kg/injection, schedule: Q01DX005 (ip), vehicle: saline 100 % of control | dose: 100.0 mg/kg/injection, schedule: Q01DX005 (ip), vehicle: saline 97 % of control | dose: 200.0 mg/kg/injection, schedule: Q01DX005 (ip), vehicle: saline 100 % of control

CC1(C)CC(=O)N(Cc2ccccc2)N1C(=O)c1ccccc1
inactive: dose: 50.0 mg/kg/injection, schedule: Q01DX001 (ip), vehicle: saline with Tween-80 100 % of control | dose: 100.0 mg/kg/injection, schedule: Q01DX001 (ip), vehicle: saline with Tween-80 95 % of control | dose: 200.0 mg/kg/injection, schedule: Q01DX001 (ip), vehicle: saline with Tween-80 100 % of control
